Assays:
Format in all cases: cell-based
[1] = tested on: COR-L105; assay: CellTiter-Glo proliferation assay, COR-L105; conditions: Homo sapiens, COR-L105, 120 h, COR-L105, 5 days; for Emax: read-out: COR-L105 Span (max)
Procedure: (§1) The BCL-xL degrader compounds were tested against two endogenous cancer cell lines: • COR-L105: ECACC No. 92031918 cultured in RPMI-1640+10% FBS • NCI-H1650: (ATCC No. CRL-5883 cultured in RPMI-1640+10% FBS
(§2) The ability of the BCL-xL degrader low molecular weight compounds to inhibit cell proliferation and survival was assessed using the Promega CellTiter-Glo® proliferation assay.
(§3) Cell lines were cultured in media that is optimal for their growth at 5% CO2, 37° C. in a tissue culture incubator. Prior to seeding for the proliferation assay, the cells were split at least 2 days before the assay to ensure optimal growth density. On the day of seeding, adherent cells were lifted off tissue culture flasks using 0.25% trypsin. Cell viability and cell density were determined using a cell counter (Vi-Cell XR Cell Viability Analyzer, Beckman Coulter). Cells with higher than 85% viability were seeded for the assay.
(§4) The COR-105 cell line was seeded in white, clear bottom 384-well TC treated plates (Corning cat. #3765). Cells were seeded at a density of 1,000 cells per well in 45 μL of standard growth media. Plates were incubated at 5% CO2, 37° C. overnight in a tissue culture incubator. The NCI-H1650 cell line was seeded in black, clear round bottom 384-well ultra-low attachment spheroid microplates (Corning cat. #3830). Cells were seeded at a density of 3,000 cells per well in 45 uL of standard growth media. Plates were spun in a centrifuge for 5 minutes and 1,000 RPM. Plates were incubated at 5% CO2, 37° C. for 72 hours in a tissue culture incubator.
(§5) On the day of dosing, BCL-xL degrader low molecular weight compounds were prepared at 1 OX in standard growth media. The prepared drug treatments were then added to the cells resulting in final concentrations of 0.508 nM-10 μM and a final volume of 50 μL per well. Each drug concentration was tested in quadruplets. Plates were incubated at 5% CO2, 37° C. for 5 days in a tissue culture incubator.
(§6) For COR-L105 plates, cell viability was assessed through the addition of 25 μL of CellTiter Glo® (Promega, cat #G7573), a reagent which lyses cells and measures total adenosine triphosphate (ATP) content. Plates were incubated at room temperature for 10 minutes to stabilize luminescent signals prior to reading with a luminescence reader (EnVision Multilabel Plate Reader, PerkinElmer). For NCI-H1650 plates, cell viability was assessed through the addition of 40 μL of CellTiter Glo® 3D Cell Viability Assay substrate (Promega, cat #G9681), a reagent which lyses cells and measures total adenosine triphosphate (ATP) content. Wells were mixed thoroughly and plates were incubated at room temperature for 30 minutes to stabilize luminescent signals prior to reading using a luminescence reader (EnVision Multilabel Plate Reader, PerkinElmer).
(§7) To evaluate the effect of the drug treatments, luminescent counts from wells containing untreated cells (100% viability) were used to normalize treated samples. A variable slope model was applied to fit a nonlinear regression curve to the data in GraphPad PRISM version 7.02 software. IC50 and Amax values were extrapolated from the resultant curves. The concentrations of treatment required to inhibit 50% of cell growth or survival (IC50) were calculated with representative IC50 values of the cell lines tested summarized in Table 11.

[2] = tested on: NCI-H1650; assay: CellTiter-Glo 3D proliferation assay, NCI-H1650 spheroids; conditions: Homo sapiens, NCI-H1650, 120 h, 5 days; for Emax: read-out: NCI-H1650 Span (Amax)
Procedure: as §1, §2, §3, §4, §5, §6, §7

[3] = biological target: T1, HiBiT-tagged BCL-xL (Homo sapiens, UniProt Q07817); assay: NCI-H1650 BCL-xL protein levels, Nano-Glo HiBiT Lytic Detection; conditions: NCI-H1650 expressing HiBiT-tagged BCL-xL, overnight incubation, read-out: Bcl-xl HIBIT NCIH1650 DC50
T1 construct: expressed in transfected cells; host or cells: NCI-H1650 (ATCC No. CRL-5883), engineered HiBiT cell line
T1 sequence (Q07817 whole entry): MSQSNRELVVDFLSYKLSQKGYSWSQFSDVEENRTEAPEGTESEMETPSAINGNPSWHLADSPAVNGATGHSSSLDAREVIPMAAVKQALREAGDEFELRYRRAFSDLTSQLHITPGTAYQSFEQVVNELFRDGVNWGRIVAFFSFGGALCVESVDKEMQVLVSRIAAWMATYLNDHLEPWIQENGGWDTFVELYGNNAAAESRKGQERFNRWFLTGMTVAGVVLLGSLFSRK
How it was run: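 NCI-H1650 cells expressing HiBiT-tagged BCL-xL (5000/well) were treated overnight at 37° C with 10 concentrations, final 0.508 nM-10 μM, in triplicate. Remaining BCL-xL measured by Nano-Glo HiBiT lytic luminescence, normalized to untreated cells; 50% values by four-parameter logistic fit.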

[4] = tested on: EBC-1 lung cancer cell line; assay: EBC-1 cell proliferation, CellTiter-Glo assay; conditions: Homo sapiens, 120 h; Ebc-1 cell viability, CTG assay, 5 days of treatment; read-out: CTG 5 day Ebc1 GI50
How it was run: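 EBC-1 cells seeded at 1000 per well overnight, then exposed to 10-point dilutions (0.508 nM–10 μM final) for 5 days at 37 °C, in triplicate. ATP luminescence by CellTiter-Glo, normalised to untreated wells; GI50 from four-parameter logistic fit, runs valid only with at least one doubling.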

[5] = biological target: T2, Bcl-xL (Homo sapiens, UniProt Q07817); assay: HCT116 Bcl-xL degradation, capillary-based immunoassay (WES); conditions: HCT116, 24 h, 9-point serial dilution
T2 construct: Measured levels of Bcl-xL protein of HCT116 cells treated with the tested compounds; host or cells: HCT116
T2 sequence (Q07817 whole entry): as above
How it was run: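 HCT116 cells treated 24 h with compound at 10/100 nM and/or 9-point dilution (quadruplicates), then lysed. Bcl-xL measured by capillary WES immunoassay, normalized to cofilin and expressed as % of untreated cells. DC50 from four-parameter curve fit.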

[6] = tested on: MOLT-4 cells; assay: MOLT-4 cell viability, CTG assay; conditions: Homo sapiens, MOLT-4, 48 h
How it was run: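 Cells grown in RPMI 1640 with 10% FBS at 37° C, 5% CO2, then exposed to compounds for 48 h (11-point 5-fold dilution, triplicates). ATP measured by CellTiter-Glo luminescence; IC50 from four-parameter fit versus control, mean of ≥2 independent experiments.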

Structure (SMILES): Cc1ncsc1-c1ccc(CNC(=O)[C@@H]2C[C@@H](O)CN2C(=O)[C@@H](NC(=O)C2(F)CC2)C(C)(C)C)c(OCc2ccc(CN3CCN(CC#Cc4ccc(OCCCc5sc(N6CCCc7c6nnc(Nc6nc8ccccc8s6)c7C)nc5C(=O)O)c(F)c4)CC3)cc2)c1 [Example 58, 2-(3-(benzo[d]thiazol-2-ylamino)-4-methyl-6,7-dihydropyrido [2,3-c]pyridazin-8(5H)-yl)-5-(3-(2-fluoro-4-(3-(4-(4-((2-(((2S,4R)-1-((S)-2-(1-fluorocyclopropane-1-carboxamido)-3,3-dimethylbutanoyl)-4-hydroxypyrrolidine-2-carboxamido)methyl)-5-(4-methylthiazol-5-yl)phenoxy)methyl)benzyl)piperazin-1-yl)prop-1-yn-1-yl)phenoxy)propyl)thiazole-4-carboxylic acid]
- IC50 [1]: 481 nM
- Emax [1]: 85.5%
- IC50 [2]: 188 nM
- Emax [2]: 98.2%

Structure (SMILES): Cc1ncsc1-c1ccc(CNC(=O)[C@@H]2C[C@@H](O)CN2C(=O)[C@@H](NC(=O)C2(F)CC2)C(C)(C)C)c(OCCCCCCCCCCCCN2CCN(CC#Cc3ccc(OCCCc4sc(N5CCCc6c5nnc(Nc5nc7ccccc7s5)c6C)nc4C(=O)O)c(F)c3)CC2)c1 [Example 55, 2-(3-(benzo[d]thiazol-2-ylamino)-4-methyl-6,7-dihydropyrido [2,3-c]pyridazin-8(5H)-yl)-5-(3-(2-fluoro-4-(3-(4-(12-(2-(((2S,4R)-1-((S)-2-(1-fluorocyclopropane-1-carboxamido)-3,3-dimethylbutanoyl)-4-hydroxypyrrolidine-2-carboxamido)methyl)-5-(4-methylthiazol-5-yl)phenoxy)dodecyl)piperazin-1-yl)prop-1-yn-1-yl)phenoxy)propyl)thiazole-4-carboxylic acid]
- IC50 [1]: 1160 nM
- Emax [1]: 81%
- IC50 [2]: 302 nM
- Emax [2]: 78.8%

Structure (SMILES): Cc1ncsc1-c1ccc(CNC(=O)[C@@H]2C[C@@H](O)CN2C(=O)[C@@H](NC(=O)C2(F)CC2)C(C)(C)C)c(OCCN(C)CC(=O)N2CCN(CC#Cc3ccc(OCCCc4sc(N5CCCc6c5nnc(Nc5nc7ccccc7s5)c6C)nc4C(=O)O)c(F)c3)CC2)c1 [Example 59, 2-(3-(benzo[d]thiazol-2-ylamino)-4-methyl-6,7-dihydropyrido [2,3-c]pyridazin-8(5H)-yl)-5-(3-(2-fluoro-4-(3-(4-(N-(2-(2-(((2S,4R)-1-((S)-2-(1-fluorocyclopropane-1-carboxamido)-3,3-dimethylbutanoyl)-4-hydroxypyrrolidine-2-carboxamido)methyl)-5-(4-methylthiazol-5-yl)phenoxy)ethyl)-N-methylglycyl)piperazin-1-yl)prop-1-yn-1-yl)phenoxy)propyl)thiazole-4-carboxylic acid]
- IC50 [1]: 2430 nM
- Emax [1]: 105%
- IC50 [2]: 119 nM
- Emax [2]: 77.9%

Structure (SMILES): Cc1ncsc1-c1ccc(CNC(=O)[C@@H]2C[C@@H](O)CN2C(=O)[C@@H](NC(=O)C2(F)CC2)C(C)(C)C)c(OCCCCCCCCN2CCN(CC#Cc3ccc(OCCCc4sc(N5CCCc6c5nnc(Nc5nc7ccccc7s5)c6C)nc4C(=O)O)c(F)c3)CC2)c1 [Example 56, 2-(3-(benzo[d]thiazol-2-ylamino)-4-methyl-6,7-dihydropyrido [2,3-c]pyridazin-8(5H)-yl)-5-(3-(2-fluoro-4-(3-(4-(8-(2-(((2S,4R)-1-((S)-2-(1-fluorocyclopropane-1-carboxamido)-3,3-dimethylbutanoyl)-4-hydroxypyrrolidine-2-carboxamido)methyl)-5-(4-methylthiazol-5-yl)phenoxy)octyl)piperazin-1-yl)prop-1-yn-1-yl)phenoxy)propyl)thiazole-4-carboxylic acid]
- IC50 [1]: 473 nM
- Emax [1]: 82%
- IC50 [2]: 110 nM
- Emax [2]: 84.2%

Structure (SMILES): Cc1cc(N(CCCCN(C)C(=O)CCCCCCCCCSC(C)(C)[C@H](NC(=O)C2(F)CC2)C(=O)N2C[C@H](O)C[C@H]2C(=O)NCc2ccc(-c3scnc3C)cc2)c2ccc(-c3cnn(CC45CC6(C)CC(C)(C4)CC(OCCN(C)C)(C6)C5)c3C)c(C(=O)O)n2)nnc1Nc1nc2ccccc2s1 [Example 126, 6-[[6-(1,3-benzothiazol-2-ylamino)-5-methyl-pyridazin-3-yl]-[4-[10-[(2R)-2-[(1-fluorocyclopropanecarbonyl)amino]-3-[(2S,4R)-4-hydroxy-2-[[4-(4-methylthiazol-5-yl)phenyl]methylcarbamoyl]pyrrolidin-1-yl]-1,1-dimethyl-3-oxo-propyl]sulfanyldecanoyl-methyl-amino]butyl]amino]-3-[1-[[3-[2-(dimethylamino)ethoxy]-5,7-dimethyl-1-adamantyl]methyl]-5-methyl-pyrazol-4-yl]pyridine-2-carboxylic acid]
- DC50 [3]: > 1670 nM
- GI50 [4]: 1430 nM
- DC50 [5]: > 316 nM
- IC50 [6]: 240 nM

Structure (SMILES): Cc1ncsc1-c1ccc([C@H](C)NC(=O)[C@@H]2C[C@@H](O)CN2C(=O)[C@@H](NC(=O)CCCCCCCCCCCCCCCCN(C)CCOC23CC4(C)CC(C)(CC(Cn5ncc(-c6ccc(N7CCCc8c7nnc(Nc7nc9ccccc9s7)c8C)nc6C(=O)O)c5C)(C4)C2)C3)C(C)(C)C)cc1 [Example 145, 6-[3-(1,3-benzothiazol-2-ylamino)-4-methyl-6,7-dihydro-5H-pyrido[2,3-c]pyridazin-8-yl]-3-[1-[[3-[2-[[17-[[(1S)-1-[(2S,4R)-4-hydroxy-2-[[(1S)-1-[4-(4-methylthiazol-5-yl)phenyl]ethyl]carbamoyl]pyrrolidine-1-carbonyl]-2,2-dimethyl-propyl]amino]-17-oxo-heptadecyl]-methyl-amino]ethoxy]-5,7-dimethyl-1-adamantyl]methyl]-5-methyl-pyrazol-4-yl]pyridine-2-carboxylic acid]
- DC50 [3]: 2 nM
- GI50 [4]: 1 nM
- DC50 [5]: 2.17 nM
- IC50 [6]: 2.41 nM

From patent US20240376094A2, “SELECTIVE BCL-XL PROTAC COMPOUNDS AND METHODS OF USE” (Les Laboratoires Servier, priority 2021, published 2024)
